Results published in ChEMBL document CHEMBL3886764, “Acetamide derivatives” (2016).

Target: Transient receptor potential cation channel subfamily A member 1 (Homo sapiens, UniProt O75762)
Assay: Dose Response Assay: Compound plates were resuspended with 100 ul of HBSS/20 mM HEPES/0.005% BSA buffer (Compound Buffer): column 1A-H: buffer/DMSO (bk); column 2A-H: AP-18 (control antagonist for CHOK1 TRPA1 cells); column 1I-P: ATP (control for CHOK1 teton cells); column 2 I-P: 2APB (control antagonist for CHOK1/TRPM8 cells). Growth media was removed from the cell plates (20 ul) and 20 ul of the Replacement Buffer was added followed by addition of 25 ul of diluted dye. All three steps were performed using a Plate Washer BioTek 407. The plates were then incubated for 30' at RT. After incubation, both the cell and compound plates were brought to the FLIPR and 20 ul of the diluted compounds/antagonist/bk were transferred to the cell plates by the FLIPR. Plates were then incubated for 30' at room temperature. After 30' incubation, plates were returned to the FLIPR and 20 ul of 4.5× Cinnamaldehyde was added to the cell plates. During the compound addition as well as agonist addition, fluorescence readings were taken simultaneously from all 384 wells of the cell plate every 1.5 seconds. Five readings were taken to establish a stable baseline, then 20 ul of sample was rapidly (30 ul/sec) and simultaneously added to each well of the cell plate. […]

Chain of Transient receptor potential cation channel subfamily A member 1 (O75762 whole entry): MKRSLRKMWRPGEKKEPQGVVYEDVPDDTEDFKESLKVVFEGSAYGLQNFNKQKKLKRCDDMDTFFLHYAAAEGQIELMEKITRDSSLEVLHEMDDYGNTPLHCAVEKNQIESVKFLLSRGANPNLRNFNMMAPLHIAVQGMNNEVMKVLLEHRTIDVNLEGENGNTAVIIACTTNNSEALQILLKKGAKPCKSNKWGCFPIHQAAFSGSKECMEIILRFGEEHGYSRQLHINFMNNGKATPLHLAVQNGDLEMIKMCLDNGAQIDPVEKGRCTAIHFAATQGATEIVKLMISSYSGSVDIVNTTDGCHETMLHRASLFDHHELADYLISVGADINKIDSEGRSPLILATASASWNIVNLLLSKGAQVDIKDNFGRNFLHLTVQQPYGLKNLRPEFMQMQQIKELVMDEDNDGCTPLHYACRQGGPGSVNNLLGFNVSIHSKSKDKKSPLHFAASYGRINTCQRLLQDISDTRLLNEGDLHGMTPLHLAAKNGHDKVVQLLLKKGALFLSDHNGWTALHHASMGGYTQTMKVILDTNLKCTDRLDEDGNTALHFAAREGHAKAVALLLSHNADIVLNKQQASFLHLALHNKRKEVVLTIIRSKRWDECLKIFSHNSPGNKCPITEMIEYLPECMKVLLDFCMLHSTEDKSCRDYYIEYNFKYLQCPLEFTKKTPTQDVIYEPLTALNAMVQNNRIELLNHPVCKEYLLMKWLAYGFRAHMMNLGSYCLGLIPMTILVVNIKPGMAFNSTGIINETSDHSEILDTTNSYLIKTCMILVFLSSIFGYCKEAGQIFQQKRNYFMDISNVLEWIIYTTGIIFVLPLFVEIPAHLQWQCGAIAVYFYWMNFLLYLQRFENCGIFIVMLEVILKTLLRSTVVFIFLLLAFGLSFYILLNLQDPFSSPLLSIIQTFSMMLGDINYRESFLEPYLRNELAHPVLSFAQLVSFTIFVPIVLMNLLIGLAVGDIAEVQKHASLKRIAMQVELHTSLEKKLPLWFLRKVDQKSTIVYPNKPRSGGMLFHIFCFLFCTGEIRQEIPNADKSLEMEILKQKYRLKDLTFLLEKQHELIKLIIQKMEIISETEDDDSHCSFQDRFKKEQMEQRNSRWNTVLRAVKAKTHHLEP

- IC50: 1520 nM
Structure (SMILES): CN(CC(=O)NCC1CN(c2ccc(C(F)(F)F)cc2)CCO1)S(=O)(=O)c1ccc(F)cc1 (stereo unspecified)
